From patent US5641792A, “Benzoylguanidines substituted by heterocyclic N-oxide, process for their preparation and pharmaceutical compositions containing them” (priority 1994, dated 1997)
Where a name gives a salt, the structure may show the parent alone.

Assays:
[1] = target: T1, Na^+ /H^+ exchanger of rabbit erythrocytes (Oryctolagus cuniculus, UniProt P23791); experiment: Inhibition of the Na^+ /H^+ Exchanger of Rabbit Erythrocytes (amiloride-sensitive Na^+ influx, flame photometry); type: cell-based, rabbit (White New Zealand); conditions: cholesterol-fed rabbits, pH 7.4, 37° C.
T1 construct: determine the Na^+ influx into the erythrocytes via Na^+ /H^+ exchange by flame photometry; endogenous in cells; host or cells: erythrocytes in blood from the ear arteries of cholesterol-fed White New Zealand rabbits (Ivanovas)
Text: Inhibition of the Na^+ /H^+ Exchanger of Rabbit Erythrocytes
White New Zealand rabbits (Ivanovas) were given a standard diet with 2% of cholesterol for six weeks in order to activate the Na^+ /H^+ exchange and in this way to be able to determine the Na^+ influx into the erythrocytes via Na^+ /H^+ exchange by flame photometry. The blood was removed from the ear arteries and rendered noncoagulable by 25 IU of potassium-heparin. A portion of each sample was used for duplicate determination of the hematocrit by centrifugation. Aliquots of in each case 100 μl were used for measurement of the starting Na^+ content of the erythrocytes.
To determine the amiloride-sensitive sodium influx, 100 μl of each blood sample were incubated in 5 ml portions each of a hyperosmolar salt/sucrose medium (mmol/l: 140 NaCl, 3 KCl, 150 sucrose, 0.1 ouabain, 20 tris-hydroxymethylaminomethane) at pH 7.4 and 37° C. The erythrocytes were then washed three times with ice-cold MgCl2 /ouabain solution (mmol/l: 112 MgCl2, 0.1 ouabain) and hemolyzed in 2.0 ml of distilled water. The intracellular sodium content was determined by flame photometry.
The Na^+ net influx was calculated from the difference between the starting sodium values and the sodium content of the erythrocytes after incubation. The sodium influx which can be inhibited by amiloride resulted from the difference between the sodium content of the erythrocytes after incubation with and without 3×10^-4 mol/l of amiloride. This procedure was also followed with compounds according to the invention.

rat hearts = conditions: isolated rat hearts, cited from earlier work
[2] = cited from earlier work

T1 sequence (P23791 whole entry): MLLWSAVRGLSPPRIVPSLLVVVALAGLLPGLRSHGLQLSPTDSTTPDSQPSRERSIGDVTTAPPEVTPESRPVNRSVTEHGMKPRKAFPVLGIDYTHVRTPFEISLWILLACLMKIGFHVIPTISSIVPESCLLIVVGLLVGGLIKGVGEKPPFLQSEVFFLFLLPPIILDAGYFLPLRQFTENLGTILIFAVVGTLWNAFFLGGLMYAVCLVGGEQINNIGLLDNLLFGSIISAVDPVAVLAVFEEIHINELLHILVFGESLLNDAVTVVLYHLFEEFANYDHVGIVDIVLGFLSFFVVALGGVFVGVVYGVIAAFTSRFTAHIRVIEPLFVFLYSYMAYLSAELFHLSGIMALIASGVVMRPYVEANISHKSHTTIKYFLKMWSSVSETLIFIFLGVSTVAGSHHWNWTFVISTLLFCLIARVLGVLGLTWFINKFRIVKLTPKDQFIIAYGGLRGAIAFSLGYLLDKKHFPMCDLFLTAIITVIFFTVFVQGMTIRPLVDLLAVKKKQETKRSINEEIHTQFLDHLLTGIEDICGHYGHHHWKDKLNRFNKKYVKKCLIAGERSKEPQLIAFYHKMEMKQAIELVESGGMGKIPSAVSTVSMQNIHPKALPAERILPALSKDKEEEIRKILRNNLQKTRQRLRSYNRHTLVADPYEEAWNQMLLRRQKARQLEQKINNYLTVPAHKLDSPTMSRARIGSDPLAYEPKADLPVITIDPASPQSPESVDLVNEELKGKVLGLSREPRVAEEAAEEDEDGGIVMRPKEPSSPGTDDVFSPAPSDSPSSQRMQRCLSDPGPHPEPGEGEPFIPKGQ

With `NC(N)=NC(=O)c1ccc(Oc2ccc[n+]([O-])c2)c(C(F)(F)F)c1` [Example 1, 4-(pyridine N-oxide-3-yloxy)-3-trifluoromethyl-benzoylguanidine, hydrochloride] the IC50 [1] was 80 nM.

`Cc1ccc2cc(Oc3ccc(C(=O)N=C(N)N)cc3S(C)(=O)=O)ccc2[n+]1[O-]` [Example 2, 4-(quinaldine N-oxide-6-yloxy)-3-methylsulfonyl-benzoylguanidine, hydrochloride] gave an IC50 [1] of 300 nM.

`Cc1ccc2cc(Oc3ccc(C(=O)N=C(N)N)cc3C(F)(F)F)ccc2[n+]1[O-]` [Example 3, 4-(quinaldine N-oxide-6-yloxy)-3-trifluoromethyl-benzoylguanidine, hydrochloride] showed an IC50 [1] of 19 nM.

For `NC(N)=NC(=O)c1nc(Cl)c(N)nc1N` [amiloride, Amiloride], the “suppression of artificially induced ventricular fibrillation” value (rat hearts; Eur. Heart J. 9 (suppl. 1): 167 (1988)) is listed as “suppressed completely”, the antiarrhythmic effect ([2]; Circulation 79, 1257-63 (1989)) is listed as “only weak” and the “accompanying action (side-effects)” value ([2]; accompanies the antiarrhythmic effect) is listed as “antihypertensive and saluretic action”.

In the case of `CCN(c1nc(N)c(C(=O)NC(=N)N)nc1Cl)C(C)C` [ethylisopropylamiloride], the “potency relative to amiloride in this model (ventricular fibrillation)” value (rat hearts; compared with amiloride) is given as “even more potent than amiloride”.
